Each structure is given as a SMILES string.

For orientation: IC50 means the concentration that gives 50% inhibition.

The experiment deals with PI3Kalpha (Homo sapiens (Human), UniProt P42336). The following applies: read-out: IC50 PI3K.
Chain of PI3Kalpha (P42336 whole entry, looked up): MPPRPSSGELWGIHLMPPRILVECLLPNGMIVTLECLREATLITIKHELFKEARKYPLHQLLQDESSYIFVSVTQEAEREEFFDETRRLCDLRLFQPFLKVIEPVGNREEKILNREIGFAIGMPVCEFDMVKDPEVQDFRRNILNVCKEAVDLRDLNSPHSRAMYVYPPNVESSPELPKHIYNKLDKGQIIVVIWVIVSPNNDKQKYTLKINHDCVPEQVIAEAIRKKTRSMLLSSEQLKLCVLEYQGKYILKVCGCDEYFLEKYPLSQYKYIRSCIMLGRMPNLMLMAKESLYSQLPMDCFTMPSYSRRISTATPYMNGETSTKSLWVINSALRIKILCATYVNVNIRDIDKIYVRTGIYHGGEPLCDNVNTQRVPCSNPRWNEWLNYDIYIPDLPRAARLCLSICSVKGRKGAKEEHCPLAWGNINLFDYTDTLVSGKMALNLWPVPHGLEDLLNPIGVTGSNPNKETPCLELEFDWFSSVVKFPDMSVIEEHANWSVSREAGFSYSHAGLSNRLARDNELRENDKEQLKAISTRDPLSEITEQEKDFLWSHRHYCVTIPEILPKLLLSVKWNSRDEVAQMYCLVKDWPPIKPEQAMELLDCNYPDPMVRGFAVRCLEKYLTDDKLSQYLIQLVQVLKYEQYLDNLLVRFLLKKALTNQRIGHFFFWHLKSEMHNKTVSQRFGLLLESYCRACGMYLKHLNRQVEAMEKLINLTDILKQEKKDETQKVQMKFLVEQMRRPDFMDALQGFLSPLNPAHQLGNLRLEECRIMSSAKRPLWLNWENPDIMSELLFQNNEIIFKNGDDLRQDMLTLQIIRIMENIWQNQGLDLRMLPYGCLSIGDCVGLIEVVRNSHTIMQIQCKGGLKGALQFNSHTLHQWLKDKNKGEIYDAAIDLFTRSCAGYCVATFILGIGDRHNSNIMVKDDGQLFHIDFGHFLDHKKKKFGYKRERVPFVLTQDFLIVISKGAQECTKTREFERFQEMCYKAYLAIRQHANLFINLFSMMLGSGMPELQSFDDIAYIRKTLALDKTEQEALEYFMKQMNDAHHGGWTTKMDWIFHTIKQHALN
Procedure: Plot the concentration of each compound versus the emission ratio. […] Determination of IC50 values can be obtained by curve fitting (sigmoidal dose response, variable slope) using Prism software from GraphPad).
Method Type: Filter-Binding-Assay
Compounds are serially diluted in assay buffer+6% DMSO and 10 μl of each dilution is added per well of a 96-well plate (compounds are tested in duplicates) and mixed with 30 μl of the lipid vesicles containing PDGFR-Peptide (0.5 μM final) and PI3K alpha (25 ng/well final). The mixture is then incubated for 20 minutes at room temperature. Subsequently, 20 μl of assay buffer containing 3 μM cold ATP and 0.5 μCi/20 μl 33P-ATP are added. The plates are then incubated at room temperature for 120 minutes (shaking with 300 rpm). The reaction mix is transferred onto filter plates using “filtermate harvester” from Packard: filter plates are rinsed with PBS, then the reaction mix is filtered onto the filter plate, washed 5 times with PBS and are allowed to dry for 30-60 minutes at 50° C.
As positive control serve wells containing vehicle controls (1% DMSO in assay buffer), showing non-inhibited kinase activity (high values). Wells containing assay buffer instead of enzyme can serve as control for background activity (low values).
Calculate IC50 values using the Smiley program (based on GrapPad Prism)
On to `CCc1ncnc(-c2cc(F)c(C(=O)N3CCN(C(C)CO)CC3)c(Cl)c2)c1C#Cc1ccc(N)nc1` (stereo not drawn) [Example E-306], for which the 50% inhibitory concentration (IC50) is 108 nM.

For the compound `CCc1ncnc(-c2ccc(C(=O)N3CCNCC3)c(F)c2)c1C#Cc1ccc(N)nc1` [Example D-113], the IC50 came to 57 nM. The value for `CCc1ncnc(-c2ccc(C(=O)N3CC[C@H](N(C)C)C3)c(F)c2)c1C#Cc1ccc(N)nc1` [Example D-237] was 161 nM.

`CCc1ncnc(-c2ccc(C(=O)N3CCN(CC4CC4)CC3)c(Cl)c2)c1C#Cc1ccc(N)nc1` [Example D-136]: the IC50 turned out to be 228 nM. Under `CCc1ncnc(-c2ccc(C(=O)N3CCN4CCC[C@H]4C3)c(Cl)c2)c1C#Cc1ccc(N)nc1` [Example E-141] stands 260 nM. The value for `CCc1ncnc(-c2cc(F)c(C(=O)N3CCCC3)c(F)c2)c1C#Cc1ccc(N)nc1` [Example E-11] was 125 nM; that for `CCc1ncnc(-c2cc(F)c(C(=O)N3CCn4c(C)cnc4C3)c(F)c2)c1C#Cc1ccc(N)nc1` [Example E-149] was 85.8 nM. Under `CCc1ncnc(-c2ccc(C(=O)N3CC[C@@H](N(C)C)C3)c(F)c2)c1C#Cc1ccc(N)nc1` [Example D-236] stands 269 nM; under `CCc1ncnc(-c2ccc(C(=O)N3CCC(O)(c4ccccc4)CC3)c(F)c2)c1C#Cc1ccc(N)nc1` [Example D-126], 142 nM.

In the case of `CCc1ncnc(-c2cc(Cl)c(C(=O)N3CCN(C)CC3)c(Cl)c2)c1C#Cc1ccc(N)nc1` [Example E-197], the IC50 amounted to 123 nM. Under `Cc1ncnc(-c2cnc3ccccc3c2)c1C#Cc1ccc(N)nc1` [Example C-22] stands 30 nM; under `CCc1ncnc(-c2ccc(C(=O)N3CC[C@H](O)C3)c(Cl)c2)c1C#Cc1ccc(N)nc1` [Example E-27], 58.3 nM.

In the case of `CCc1ncnc(-c2cc(F)c(C(=O)N3CCN(Cc4nc(C)c(C)o4)CC3)c(F)c2)c1C#Cc1ccc(N)nc1` [Example E-300], the concentration for half-maximal inhibition (IC50) came out at 783 nM.

As for `CCc1ncnc(-c2ccc(C(=O)N(C)CCOC)c(Cl)c2)c1C#Cc1ccc(N)nc1` [Example D-35], the IC50 came to 63 nM. As for `CCc1ncnc(-c2ccc(C(=O)N3CCC(O)(C(C)C)CC3)c(F)c2)c1C#Cc1ccc(N)nc1` [Example D-124], the IC50 is 228 nM. The value for `CCc1ncnc(-c2ccc(C(=O)N3CCN(CCOCCO)CC3)c(F)c2)c1C#Cc1ccc(N)nc1` [Example E-345] was 109 nM; that for `Cc1cc(-c2ncnc(C)c2C#Cc2ccc(N)nc2)ccn1` [Example C-20] was 58 nM; that for `CCc1ncnc(-c2ccc(C(=O)N3CCN4CCCCC4C3)c(F)c2)c1C#Cc1ccc(N)nc1` [Example D-87] was 233 nM. `CCc1ncnc(-c2ccc(C(=O)N3CCN(CC4CC4)CC3)c(Cl)c2)c1C#Cc1ccc(N)nc1` [Example E-18]: the IC50 is 228 nM. Under `CCc1ncnc(-c2ccc(C(=O)N3CC[C@@H](N(C)C)C3)c(OC(F)(F)F)c2)c1C#Cc1ccc(N)nc1` [Example E-224] stands 402 nM; under `CCc1ncnc(-c2cc(F)c(C(=O)N3CCN(C)CC3)c(Cl)c2)c1C#Cc1ccc(N)nc1` [Example E-233], 89.8 nM; under `CCc1ncnc(-c2ccc(C(=O)NCCOC)c(Cl)c2)c1C#Cc1ccc(N)nc1` [Example D-33], 181 nM. The value for `CCc1ncnc(-c2ccc(C(=O)NC3CCCN(C)C3)c(C)c2)c1C#Cc1ccc(N)nc1` (stereo not drawn) [Example E-120] was 349 nM. In the case of `CCc1ncnc(-c2ccc(C(=O)N(C)O)c(Cl)c2)c1C#Cc1ccc(N)nc1` [Example D-153], the IC50 worked out at 67 nM. Under `CCN(CC)C(=O)c1cccc(-c2ncnc(C)c2C#Cc2ccc(N)nc2)c1` [Example C-36] stands 308 nM; under `CCc1ncnc(-c2ccc(C(=O)N3CCN(S(=O)(=O)CC)CC3)c(F)c2)c1C#Cc1ccc(N)nc1C` [Example D-19], 92 nM; under `CCc1ncnc(-c2ccc(C(=O)NC3CC(C)(C)NC(C)(C)C3)c(F)c2)c1C#Cc1ccc(N)nc1` [Example D-213], 272 nM.

The values above are taken from patent publication US8633183B2 (priority 2010, dated 2014).
